Where a SMILES comes first, the peptide text is derived from it. The star is where a group is joined. Galloyl = O=C(c1cc(O)c(O)c(O)c1)*
Columns and labels:
[1] = test system: lipid droplets in HCVcc-infected Huh-7.5 cells; experiment: Intracellular distribution and quantity of neutral lipids (Bodipy 493/503); assay type: cell-based, human; details: 20 μM; 48 h; HCV-infected Huh-7.5
Excerpt: Figure 7 GA-Hecate effect on lipid droplets. (A) Pattern of lipid droplet distribution on treated and non-treated HCV-infected Huh-7.5 cells and the lipid droplets relative quantification. Blue: DAPI staining nuclei; Green: lipid droplets stained by Bodipy 493/503; Red: HCV NS5A represented by Alexa fluor-594. (B) Light Scattering Dynamic showing synthetic unilamellar vesicle size with lipid droplet constitution after treatment with the following: I. Water (negative control of size change); II. Triton-X 100 (positive control of size change); III. Hecate; IV. GA-Hecate.
To evaluate the GA-Hecate effect on the intracellular neutral lipid distribution, the GA-Hecate-treated cells at maximum non-cytotoxic concentration (20 μM) were evaluated 48 h post-treatment. For this purpose, 2 × 10^4 Huh-7.5 cells that were infected with HCVcc were seeded in a 24-well plate 24 h […] the treatment. On the following day, GA-Hecate or water (peptide diluent) were added in the plate and incubated for 48 h. […] To quantify the intracellular lipid content, two - four photos/well were performed and the fluorescence intensity was measured by ImageJ software. Bodipy fluorescence was normalized with DAPI fluorescence.

[2] = test system: Huh-7.5 cells harboring SGR-JFH-1 Feo; experiment: MTT cytotoxicity in hepatocytes; assay type: cell-based, human
Excerpt: Figure 2 Hecate and its derivative-peptide effects on subgenomic HCV genotype 2a replication and hepatotoxicity. (A) Hecate. (B) Lys- Hecate. (C) GA-Hecate. (D) GA2-Hecate. (E) Acetyl-Hecate. (F) Glu-Hecate. Luciferase assays report HCV replication and MTT assays report the viability of Huh-7.5 cells harboring SGR-JFH-1 Feo under peptide treatment. Water was used as a negative control of virus replication inhibition and cell death (Control (−)), and Cyclosporine A was used as a positive control for virus replication inhibition (Control (+)). Red dotted lines represent the arbitrary threshold of 80% cell viability, and blue dotted lines represent the maximum inhibition presented by Hecate at the maximum safe concentration. Bars represent triplicates of the three independent assays. ***P < 0.01 vs control (−).
Peptide cytotoxicity profiles were measured by the MTT [3-(4,5-dimethylthiazol- 2-yl)-2,5-diphenyl tetrazolium bromide] (Sigma–Aldrich) method. Twenty-four hours before treatment, 5 × 10^3 SGR-harboring cell lines (SGR-Feo-JFH-1 or S52/SG-neo) were cultured with supplemented DMEM in a 96-multi-well plate and incubated at 37 °C in a humidified 5% CO2 incubator. On the subsequent day, peptide-containing medium was added at the following final concentrations: 2.5, 5, 10 and 20 μM. The tested peptides were Hecate and its derivatives, which included the following: lysine addition (Lysine-Hecate/Lys-Hecate); one or two molecules of Gallic Acid (GA-Hecate and GA2-Hecate); one acetyl radical (Acetyl-Hecate) or Glutamic acid (Glu-Hecate). After 48 h of incubation, peptide-media was removed, and MTT at a final concentration of 1 mg/mL was added to the wells, incubated for 30 minutes and subsequently replaced by 100 μL of DMSO. Absorbance was measured at 562 nm, using a plate spectrophotometer (FLUOstar Omega/BMG LABTECH, Offenburg, BW, DE). Cell viability was calculated considering water-treated cells (peptides diluent) as a negative control. All experiments were performed in triplicate and in three independent replicates. Further assays were performed considering at least 80% viability of the treated cells.
GA-Hecate toxicity and viral inhibition profile in 24, 48 and 72h post-treatment in […]
GA-Hecate toxicity and viral inhibition capacity were evaluated at 24, 48 and 72h post-treatment. Tested concentrations were 1.25; 2.5; 5; 10; 20; and 40 µM. At the end of every incubation, cells were stained using MTT as previously described. Similarly, at every time point, treated cells were lysed using PLB and summited to Luminescence analysis as previously described. […]

HCV JFH1 3' UTR dsRNA = experiment: dsRNA intercalation assay (agarose gel); assay type: binding, hepatitis C virus; details: peptide 20 μM; 45 min; 1% agarose gel
Excerpt: scans, with a resolution of 0.2 nm. To investigate the conformational changes by the membrane environments, the data were obtained in vesicles containing POPC:POPS (9:1), and POPC:Cholesterol (9:1). CD spectra were typically recorded as an average of the eight scans that were obtained in millidegrees and converted to molar ellipticity [θ] in deg·cm2·dmol-1. The peptide concentration was 10 μmol·L-1, and the proportion of lipid/peptide was 100 (L/P = 100).
Effect of peptides on dsRNA intercalation assay
To assess GA-Hecate’s dsRNA intercalation capacity, we performed an assay adapted from Krawczyk et al. 2009. Initially, a PCR reaction was made and the HCV JFH1 3’ untranslated region (UTR) (accession no. AB047639) was amplified by specific primers flanked by a T7 promoter sequence (F
273 bp, was purified using a ZymocleanTM Gel DNA recovery Kit (Zymo Research) and used as a template for in vitro dsRNA production using a T7 Ribomax Express kit (Promega). […] GA-Hecate, Hecate and Lys-Hecate (20 μM) were incubated with […] of dsRNA, for 45 min, and subsequently analysed in 1% agarose gel 1X TAE stained with ethidium bromide. […]
In order to guarantee that the virus inhibition effect was not related exclusively to cell death trigger, all concentrations were evaluated to necrosis and apoptosis induction. […]

SMILES: CC(C)C[C@H](NC(=O)[C@H](C)NC(=O)[C@H](CCCCN)NC(=O)[C@H](CCCCN)NC(=O)[C@H](CC(C)C)NC(=O)[C@H](C)NC(=O)[C@H](CCCCN)NC(=O)[C@H](CCCCN)NC(=O)[C@H](CC(C)C)NC(=O)[C@H](CCCCN)NC(=O)[C@H](CCCCN)NC(=O)[C@H](CC(C)C)NC(=O)[C@H](C)NC(=O)[C@H](CCCCN)NC(=O)[C@H](CCCCN)NC(=O)[C@H](CC(C)C)NC(=O)[C@H](C)NC(=O)[C@H](CCCCN)NC(=O)[C@H](CC(C)C)NC(=O)[C@H](C)NC(=O)[C@H](CC(C)C)NC(=O)[C@H](C)NC(=O)[C@H](Cc1ccccc1)NC(=O)c1cc(O)c(O)c(O)c1)C(N)=O [GA-Hecate] (Galloyl-FALALKALKKALKKLKKALKKAL-NH2)
- effect on lipid droplets distribution and quantity [1]: altered the lipid droplets distribution and reduced its quantity
- cell toxicity ([2]; 1.25 µM, 72 h): no cell toxicity
- cell death ([2]; 20 μM): 20%
- CC50 (50% cytotoxic concentration) ([2]; 48 h incubation, SGR-Feo-JFH-1 Huh-7.5 cells, triplicate in three independent assays): 34.95 µM
- CC50 72 h post-treatment ([2]; 72 h, 1.25-40 µM): 19 µM
- maximum non-toxic (safe) concentration in hepatocytes ([2]; arbitrary threshold of 80% cell viability, 48 h): 20 µM
- intercalation in HCV dsRNA (HCV JFH1 3' UTR dsRNA): able to intercalate in HCV dsRNA

— paper PMC6156508, “GA-Hecate antiviral properties on HCV whole cycle represent a new antiviral class and open the door for the development of broad spectrum antivirals” (Scientific Reports, 2018)
